Activity calls are given as the source filed them. The calls are words filed in the database; no cut-off is given here.
Tests used:
HL-60 [1] = experiment: Induction of apoptosis in human HL60 cells assessed as chromatin condensation at 0.5 uM after 24 hrs by giemsa staining-based light microscopy analysis; type: functional, cell-based
[2] = Cytotoxicity against human HCT116 cells after 72 hrs by MTT assay; type: functional, HCT-116
HL-60 [3] = experiment: Induction of cell cycle arrest in human HL60 cells assessed as accumulation at S phase at 0.5 uM after 24 hrs by annexin V/propidium iodide staining based flow cytometry (reference value: 27.64 +/- 2.15%); type: functional
[4] = Cytotoxicity against human SF295 cells after 72 hrs by MTT assay; type: functional, SF-295
[5] = Cytotoxicity against human OVCAR8 cells after 72 hrs by MTT assay; type: functional, OVCAR-8
HL-60 [6] = experiment: Induction of cell cycle arrest in human HL60 cells assessed as accumulation at G2/M phase at 0.5 uM after 24 hrs by annexin V/propidium iodide staining based flow cytometry (reference value: 19.04 +/- 1.1%); type: functional
HL-60 [7] = experiment: Induction of cell cycle arrest in human HL60 cells assessed as accumulation at sub-G0/G1 phase at 0.5 uM after 24 hrs by annexin V/propidium iodide staining based flow cytometry (reference value: 6.10 +/- 0.28 %); type: functional
HL-60 [8] = experiment: Induction of cell cycle arrest in human HL60 cells assessed as accumulation at G0/G1 phase at 0.5 uM after 24 hrs by annexin V/propidium iodide staining based flow cytometry (reference value: 45.81 +/- 3.16%); type: functional
HL-60 [9] = experiment: Induction of apoptosis in human HL60 cells assessed as nuclear fragmentation at 0.5 uM after 24 hrs by giemsa staining-based light microscopy analysis; type: functional, cell-based
[10] = Cytotoxicity against human HL60 cells after 72 hrs by MTT assay; type: functional, HL-60
HL-60 [11] = experiment: Induction of apoptosis in human HL60 cells assessed as cell shrinkage at 0.5 uM after 24 hrs by giemsa staining-based light microscopy analysis; type: functional
HL-60 [12] = experiment: Induction of apoptosis in human HL60 cells assessed as mitochondrial depolarization at 2.5 uM after 24 hrs by rhodamine-123 as fluorescent dye based flow cytometry; type: functional
HL-60 [13] = experiment: Induction of apoptosis in human HL60 cells assessed as mitochondrial depolarization at 10 uM after 24 hrs by rhodamine-123 as fluorescent dye based flow cytometry; type: functional
HL-60 [14] = experiment: Induction of cell cycle arrest in human HL60 cells assessed as accumulation at G2/M phase at 5 uM after 24 hrs by annexin V/propidium iodide staining based flow cytometry (reference value: 19.04 +/- 1.10 %); type: functional
HL-60 [15] = experiment: Induction of apoptosis in human HL60 cells assessed as decrease in viable cells after 24 hrs by acridine orange/ethidium bromide staining based fluorescence microscopy; type: functional, cell-based
HL-60 [16] = experiment: Induction of cell cycle arrest in human HL60 cells assessed as accumulation at S phase at 10 uM after 24 hrs by annexin V/propidium iodide staining based flow cytometry (reference value: 27.64 +/- 2.15 %); type: functional
[17] = Cytotoxicity against mouse L929 cells after 72 hrs by MTT assay; type: cell-based; conditions: read-out: RC50
HL-60 [18] = experiment: Induction of apoptosis in human HL60 cells assessed as DNA fragmentation after 24 hrs by annexin V/propidium iodide staining based flow cytometry; type: functional, cell-based
HL-60 [19] = experiment: Induction of apoptosis in human HL60 cells assessed as chromatin condensation at 2.5 to 10 uM after 24 hrs by giemsa staining-based light microscopy analysis; type: functional, cell-based
HL-60 [20] = experiment: Induction of apoptosis in human HL60 cells assessed as increase in necrotic cells after 24 hrs by acridine orange/ethidium bromide staining based fluorescence microscopy; type: functional, cell-based
HL-60 [21] = experiment: Induction of apoptosis in human HL60 cells assessed as increase in apoptotic cells at 2.5 uM after 24 hrs by acridine orange/ethidium bromide staining based fluorescence microscopy; type: functional
HL-60 [22] = experiment: Induction of apoptosis in human HL60 cells assessed as mitochondrial depolarization at 5 uM after 24 hrs by rhodamine-123 as fluorescent dye based flow cytometry; type: functional
HL-60 [23] = experiment: Induction of cell cycle arrest in human HL60 cells assessed as accumulation at G0/G1 phase at 2.5 uM after 24 hrs by annexin V/propidium iodide staining based flow cytometry (reference value: 45.81 +/- 3.16 %); type: functional
[24] = Cytotoxicity against human HCT116 cells assessed as reduction in cell viability at 25 ug/mL after 72 hrs by MTT assay; type: functional, HCT-116
HL-60 [25] = experiment: Induction of cell cycle arrest in human HL60 cells assessed as accumulation at sub-G0/G1 phase at 5 uM after 24 hrs by annexin V/propidium iodide staining based flow cytometry (reference value: 6.10 +/- 0.28 %); type: functional
HL-60 [26] = experiment: Induction of cell cycle arrest in human HL60 cells assessed as accumulation at S phase at 2.5 uM after 24 hrs by annexin V/propidium iodide staining based flow cytometry (reference value: 27.64 +/- 2.15 %); type: functional
HL-60 [27] = experiment: Induction of apoptosis in human HL60 cells assessed as phosphatidylserine externalization at 5 uM after 24 hrs by annexin V/propidium iodide staining based flow cytometry; type: functional
[28] = Cytotoxicity against human OVCAR8 cells assessed as reduction in cell viability at 25 ug/mL after 72 hrs by MTT assay; type: functional, OVCAR-8
HL-60 [29] = experiment: Induction of cell cycle arrest in human HL60 cells assessed as accumulation at sub-G0/G1 phase at 10 uM after 24 hrs by annexin V/propidium iodide staining based flow cytometry (reference value: 6.10 +/- 0.28 %); type: functional
HL-60 [30] = experiment: Induction of cell cycle arrest in human HL60 cells assessed as accumulation at sub-G0/G1 phase at 2.5 uM after 24 hrs by annexin V/propidium iodide staining based flow cytometry (reference value: 6.10 +/- 0.28 %); type: functional
HL-60 [31] = experiment: Induction of apoptosis in human HL60 cells assessed as decrease in viable cells at 10 uM after 24 hrs by acridine orange/ethidium bromide staining based fluorescence microscopy; type: functional
HL-60 [32] = experiment: Induction of apoptosis in human HL60 cells assessed as chromatolysis at 2.5 to 10 uM after 24 hrs by giemsa staining-based light microscopy analysis; type: functional, cell-based
HL-60 [33] = experiment: Induction of apoptosis in human HL60 cells assessed as mitochondrial depolarization after 24 hrs by rhodamine-123 as fluorescent dye based flow cytometry; type: functional, cell-based
HL-60 [34] = experiment: Induction of apoptosis in human HL60 cells assessed as reduction in cellular and nuclear volumes at 2.5 to 10 uM after 24 hrs by giemsa staining-based light microscopy analysis; type: functional, cell-based
HL-60 [35] = experiment: Induction of cell cycle arrest in human HL60 cells assessed as accumulation at G2/M phase at 2.5 uM after 24 hrs by annexin V/propidium iodide staining based flow cytometry (reference value: 19.04 +/- 1.10 %); type: functional
HL-60 [36] = experiment: Induction of apoptosis in human HL60 cells assessed as intranuclear vacuoles at 2.5 to 10 uM after 24 hrs by giemsa staining-based light microscopy analysis; type: functional, cell-based
HL-60 [37] = experiment: Induction of cell cycle arrest in human HL60 cells assessed as accumulation at G0/G1 phase at 5 uM after 24 hrs by annexin V/propidium iodide staining based flow cytometry (reference value: 45.81 +/- 3.16 %); type: functional
HL-60 [38] = experiment: Induction of apoptosis in human HL60 cells assessed as decrease in viable cells at 5 uM after 24 hrs by acridine orange/ethidium bromide staining based fluorescence microscopy; type: functional
HL-60 [39] = experiment: Induction of apoptosis in human HL60 cells assessed as increase in apoptotic cells after 24 hrs by acridine orange/ethidium bromide staining based fluorescence microscopy; type: functional, cell-based
HL-60 [40] = experiment: Induction of apoptosis in human HL60 cells assessed as phosphatidylserine externalization at 10 uM after 24 hrs by annexin V/propidium iodide staining based flow cytometry; type: functional
[41] = Cytotoxicity against human SF295 cells assessed as reduction in cell viability at 25 ug/mL after 72 hrs by MTT assay; type: functional, SF-295
HL-60 [42] = experiment: Induction of cell cycle arrest in human HL60 cells assessed as accumulation at S phase at 5 uM after 24 hrs by annexin V/propidium iodide staining based flow cytometry (reference value: 27.64 +/- 2.15 %); type: functional
HL-60 [43] = experiment: Induction of apoptosis in human HL60 cells assessed as phosphatidylserine externalization at 2.5 uM after 24 hrs by annexin V/propidium iodide staining based flow cytometry; type: functional
HL-60 [44] = experiment: Induction of apoptosis in human HL60 cells assessed as increase in apoptotic cells at 10 uM after 24 hrs by acridine orange/ethidium bromide staining based fluorescence microscopy; type: functional
HL-60 [45] = experiment: Induction of apoptosis in human HL60 cells assessed as increase in necrotic cells at 10 uM after 24 hrs by acridine orange/ethidium bromide staining based fluorescence microscopy; type: functional
HL-60 [46] = experiment: Induction of cell cycle arrest in human HL60 cells assessed as accumulation at G0/G1 phase at 10 uM after 24 hrs by annexin V/propidium iodide staining based flow cytometry (reference value: 45.81 +/- 3.16 %); type: functional
HL-60 [47] = experiment: Induction of apoptosis in human HL60 cells assessed as decrease in viable cells at 2.5 uM after 24 hrs by acridine orange/ethidium bromide staining based fluorescence microscopy; type: functional
HL-60 [48] = experiment: Induction of apoptosis in human HL60 cells assessed as cytoplasmic budding at 2.5 to 10 uM after 24 hrs by giemsa staining-based light microscopy analysis; type: functional, cell-based
HL-60 [49] = experiment: Induction of cell cycle arrest in human HL60 cells assessed as accumulation at G2/M phase at 10 uM after 24 hrs by annexin V/propidium iodide staining based flow cytometry (reference value: 19.04 +/- 1.10 %); type: functional
HL-60 [50] = experiment: Induction of apoptosis in human HL60 cells assessed as increase in apoptotic cells at 5 uM after 24 hrs by acridine orange/ethidium bromide staining based fluorescence microscopy; type: functional

COc1cccc2c1C(=O)c1c(O)c3c(c(O)c1C2=O)C[C@@](O)(C(=O)CO)C[C@@H]3O[C@H]1C[C@H](N)[C@H](O)[C@H](C)O1 [DOXORUBICIN]
Activity (HL-60 [1]): Active
RC50 [2]: 0.04 µM
Activity (HL-60 [3]): 15.5%
RC50 [4]: 0.44 µM
RC50 [5]: 0.62 µM
Activity (HL-60 [6]): 2.59%
Activity (HL-60 [7]): 46.25%
Activity (HL-60 [8]): 33.78%
Activity (HL-60 [9]): Active
RC50 [10]: 0.02 µM
Activity (HL-60 [11]): Active

COc1ccc(Br)cc1C1=C(Br)C(=O)O/C1=C\c1ccc(C(F)(F)F)cc1
Activity (HL-60 [12]): 35.1%
Activity (HL-60 [13]): 68%
Activity (HL-60 [14]): 2.86%
Activity (HL-60 [15]): Dose-dependent effect
RC50 [2]: 2.98 µM
Activity (HL-60 [16]): 11.81%
RC50 [4]: 4.9 µM
CC50 at 72 h [17]: > 50 µM
RC50 [5]: 2.74 µM
Activity (HL-60 [18]): Dose-dependent effect
Activity (HL-60 [19]): Active
Activity (HL-60 [20]): Dose-dependent effect
Activity (HL-60 [21]): 31.3%
Activity (HL-60 [22]): 47%
Activity (HL-60 [23]): 72.81%
Activity [24]: 98.22%
Activity (HL-60 [25]): 23.17%
Activity (HL-60 [26]): 13.75%
Activity (HL-60 [27]): 33.3%
Activity [28]: 99.5%
Activity (HL-60 [29]): 48.52%
Activity (HL-60 [30]): 15.27%
Activity (HL-60 [31]): 11.8%
Activity (HL-60 [32]): Active
Activity (HL-60 [33]): Dose-dependent effect
Activity (HL-60 [34]): Active
Activity (HL-60 [35]): 5.92%
Activity (HL-60 [36]): Active
Activity (HL-60 [37]): 72.43%
Activity (HL-60 [38]): 38.8%
RC50 [10]: 3.58 µM
Activity (HL-60 [39]): Dose-dependent effect
Activity (HL-60 [40]): 48.1%
Activity [41]: 91.06%
Activity (HL-60 [42]): 12.93%
Activity (HL-60 [43]): 16.2%
Activity (HL-60 [44]): 71.5%
Activity (HL-60 [45]): 16.7%
Activity (HL-60 [46]): 31.64%
Activity (HL-60 [47]): 67.1%
Activity (HL-60 [48]): Active
Activity (HL-60 [49]): 9.12%

O=C1O/C(=C\c2ccc(Br)cc2)C(Cl)=C1Cl
Activity (HL-60 [12]): 21.7%
Activity (HL-60 [13]): 56.2%
Activity (HL-60 [14]): 4.68%
Activity (HL-60 [15]): Dose-dependent effect
RC50 [2]: 8.18 µM
Activity (HL-60 [16]): 7.26%
RC50 [4]: 14.68 µM
CC50 at 72 h [17]: > 50 µM
RC50 [5]: 13.68 µM
Activity (HL-60 [18]): Dose-dependent effect
Activity (HL-60 [19]): Active
Activity (HL-60 [20]): Dose-dependent effect
Activity (HL-60 [50]): 24.1%
Activity (HL-60 [22]): 37.1%
Activity (HL-60 [23]): 45.29%
Activity [24]: 98.27%
Activity (HL-60 [25]): 29.63%
Activity (HL-60 [26]): 24.16%
Activity (HL-60 [27]): 19%
Activity [28]: 98.99%
Activity (HL-60 [29]): 51.26%
Activity (HL-60 [30]): 17.5%
Activity (HL-60 [31]): 47.3%
Activity (HL-60 [32]): Active
Activity (HL-60 [33]): Dose-dependent effect
Activity (HL-60 [34]): Active
Activity (HL-60 [35]): 7.39%
Activity (HL-60 [36]): Active
Activity (HL-60 [37]): 43.19%
Activity (HL-60 [38]): 17.7%
RC50 [10]: 3 µM
Activity (HL-60 [39]): Dose-dependent effect
Activity (HL-60 [40]): 29%
Activity [41]: 94.12%
Activity (HL-60 [42]): 14.77%
Activity (HL-60 [43]): 9.5%
Activity (HL-60 [44]): 46.8%
Activity (HL-60 [45]): 12.7%
Activity (HL-60 [46]): 33.59%
Activity (HL-60 [48]): Active
Activity (HL-60 [49]): 2.71%

Reference: ChEMBL document CHEMBL3779873, “Rubrolide analogues and their derived lactams as potential anticancer agents” (Medchemcomm, 2016)
